In patent US10280169B2, “Biaryl bruton's tyrosine kinase inhibitors” (BIOGEN MA INC., priority 2013, dated 2019):
pIC50: −log10 of the molar value.

Columns and labels:
[1] = biological target: T1, BTK (Homo sapiens, UniProt Q06187); test: In vitro BTK kinase assay: BTK-POLYGAT-LS assay; assay type: biochemical; conditions: 10 uM ATP, read-out: IC50 (10 uMATP)
T1 construct: purchased Upstate 14-552

[2] = biological target: T2, pBTK (Homo sapiens, UniProt Q06187); test: In vitro PD assay in whole blood (pBTK assay); assay type: cell-based; conditions: 30 min at 37° C.
T2 construct: Heparinized venous blood was purchased from Bioreclamation, Inc. or SeraCare Life Sciences; tissue Bioreclamation, Inc. or SeraCare Life Sciences; host or cells: heparinized venous whole blood
T2 sequence (Q06187 whole entry): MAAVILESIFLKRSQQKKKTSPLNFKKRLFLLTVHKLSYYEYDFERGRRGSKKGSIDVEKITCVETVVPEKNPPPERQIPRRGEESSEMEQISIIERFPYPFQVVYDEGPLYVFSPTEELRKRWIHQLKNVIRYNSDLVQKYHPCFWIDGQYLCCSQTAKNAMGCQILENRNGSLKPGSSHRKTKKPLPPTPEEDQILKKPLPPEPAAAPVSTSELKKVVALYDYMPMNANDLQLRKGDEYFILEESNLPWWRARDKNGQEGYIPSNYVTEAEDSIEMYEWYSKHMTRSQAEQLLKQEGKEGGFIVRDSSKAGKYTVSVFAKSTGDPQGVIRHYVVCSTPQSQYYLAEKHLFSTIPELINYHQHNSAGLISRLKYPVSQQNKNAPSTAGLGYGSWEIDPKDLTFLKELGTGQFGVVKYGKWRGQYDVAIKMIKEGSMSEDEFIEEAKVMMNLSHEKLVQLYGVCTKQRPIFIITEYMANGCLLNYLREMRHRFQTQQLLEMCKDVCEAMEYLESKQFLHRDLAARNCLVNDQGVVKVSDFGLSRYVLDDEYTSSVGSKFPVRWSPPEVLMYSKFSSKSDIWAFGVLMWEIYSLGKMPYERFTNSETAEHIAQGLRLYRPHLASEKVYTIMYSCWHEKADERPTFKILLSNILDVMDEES
Protocol: Heparinized venous blood was purchased from Bioreclamation, Inc. or SeraCare Life Sciences and shipped overnight. Whole blood was aliquoted into 96-well plate and “spiked” with serial dilutions of test compound in DMSO or with DMSO without drug. The final concentration of DMSO in all wells was 0.1%. The plate was incubated at 37° C. for 30 min. Lysis buffer containing protease and phosphatase inhibitors was added to the drug-containing samples and one of the DMSO-only samples (+PPi, high control), while lysis buffer containing protease inhibitors was added to the other DMSO-only samples (−PPi, low control). All of the lysed whole blood samples were subjected to the total BTK capture and phosphotyrosine detection method described in Example 30. ECL values were graphed in Prism and a best-fit curve with restrictions on the maximum and minimum defined by the +PPi high and −PPi low controls was used to estimate the test compound concentration that results in 50% inhibition of ECL signal by interpolation.
In some instances where a compound tested has activity “D”, other structurally similar compounds beyond the measurable limits of the assay are not included in Table 2.

T1 sequence (Q06187 whole entry): as above

pIC50 [1] | pIC50 [2] | SMILES
> 8.00 | 5.00 to 5.82 | Cc1cc(-c2ncnc3cc[nH]c23)ccc1CNC(=O)c1cc2c(s1)CCCC2 [Example I-116, N-(2-methyl-4-(5H-pyrrolo[3,2-d]pyrimidin-4-yl)benzyl)-4,5,6,7-tetrahydrobenzo[b]thiophene-2-carboxamide]
> 8.00 | > 6.30 | CCn1cc(-c2cc3ncnc(-c4ccc(CNC(=O)c5ncc(C(C)(C)C)s5)c(C)c4)c3[nH]2)cn1 [Example I-40, 5-(tert-butyl)-N-(4-(6-(1-ethyl-1H-pyrazol-4-yl)-5H-pyrrolo[3,2-d]pyrimidin-4-yl)-2-methylbenzyl)thiazole-2-carboxamide]
7.00 to 8.00 | 5.00 to 5.82 | Cc1cc(-c2ncnc3cc(-c4cnn(C)c4)[nH]c23)ccc1C(CO)NC(=O)c1cc2c(s1)CCOC2 (stereo not drawn) [Example I-45, N-(2-hydroxy-1-(2-methyl-4-(6-(1-methyl-1H-pyrazol-4-yl)-5H-pyrrolo[3,2-d]pyrimidin-4-yl)phenyl)ethyl)-6,7-dihydro-4H-thieno[3,2-c]pyran-2-carboxamide]
> 8.00 | 5.00 to 5.82 | Cc1cc(-c2ncnc3[nH]c(-c4cnn(C)c4)cc23)ccc1C(C)NC(=O)c1cc2c(s1)CCOC2 (stereo not drawn) [Example I-113, N-(1-(2-methyl-4-(6-(1-methyl-1H-pyrazol-4-yl)-7H-pyrrolo[2,3-d]pyrimidin-4-yl)phenyl)ethyl)-6,7-dihydro-4H-thieno[3,2-c]pyran-2-carboxamide]
> 8.00 | > 6.30 | Cc1cc(-c2ncnc3[nH]c(-c4ccc(C(=O)N5CCOCC5)cc4)cc23)ccc1CNC(=O)c1cnc(C(C)(C)C)s1 [Example I-20]
> 8.00 | 5.82 to 6.30 | Cc1cc(-c2ncnc3cc(-c4cnn(C)c4)[nH]c23)ccc1C(CO)NC(=O)c1cnc(C(C)(C)C)s1 (stereo not drawn) [Example I-44, 2-(tert-butyl)-N-(2-hydroxy-1-(2-methyl-4-(6-(1-methyl-1H-pyrazol-4-yl)-5H-pyrrolo[3,2-d]pyrimidin-4-yl)phenyl)ethyl)thiazole-5-carboxamide]
> 8.00 | 5.00 to 5.82 | Cc1cc(-c2ncnc3[nH]ncc23)ccc1CNC(=O)c1cc2c(s1)CCCC2 [Example I-85, N-(2-methyl-4-(1H-pyrazolo[3,4-d]pyrimidin-4-yl)benzyl)-4,5,6,7-tetrahydrobenzo[b]thiophene-2-carboxamide]
> 8.00 | > 6.30 | Cc1cc(-c2ncnc3nc(N4CCN(C)CC4)[nH]c23)ccc1CNC(=O)c1cnc(C(C)(C)C)s1 [Example I-47, 2-(tert-butyl)-N-(2-methyl-4-(8-(4-methylpiperazin-1-yl)-7H-purin-6-yl)benzyl)thiazole-5-carboxamide]
> 8.00 | > 6.30 | Cc1cc(-c2ncnc3[nH]c(C4=CCS(=O)(=O)CC4)cc23)ccc1CNC(=O)c1cnc(C(C)(C)C)s1 [Example I-21, 2-(tert-butyl)-N-(4-(6-(1,1-dioxido-3,6-dihydro-2H-thiopyran-4-yl)-7H-pyrrolo[2,3-d]pyrimidin-4-yl)-2-methylbenzyl)thiazole-5-carboxamide]
> 8.00 | 5.82 to 6.30 | Cc1cc(-c2ncnc3nc(N4CCC(N(C)C)CC4)[nH]c23)ccc1CNC(=O)c1cnc(C(C)(C)C)s1 [Example I-49, 2-(tert-butyl)-N-(4-(8-(4-(dimethylamino)piperidin-1-yl)-7H-purin-6-yl)-2-methylbenzyl)thiazole-5-carboxamide]
> 8.00 | > 6.30 | Cc1cc(-c2ncnc3[nH]c(-c4cnn(C)c4)cc23)ccc1CNC(=O)c1cnc(C(C)(C)C)s1 [Example I-26, 2-(tert-butyl)-N-(2-methyl-4-(6-(1-methyl-1H-pyrazol-4-yl)-7H-pyrrolo[2,3-d]pyrimidin-4-yl)benzyl)thiazole-5-carboxamide]
> 8.00 | > 6.30 | Cc1cc(-c2ncnc3[nH]c(-c4cnn(C)c4)cc23)ccc1C(CO)NC(=O)c1cc2c(s1)CCOC2 (stereo not drawn) [Example I-32, N-(2-hydroxy-1-(2-methyl-4-(6-(1-methyl-1H-pyrazol-4-yl)-7H-pyrrolo[2,3-d]pyrimidin-4-yl)phenyl)ethyl)-6,7-dihydro-4H-thieno[3,2-c]pyran-2-carboxamide]
> 8.00 | > 6.30 | Cc1cc(-c2ncnc3cc(-c4cnn(C)c4)[nH]c23)ccc1CNC(=O)c1ncc(C(C)(C)C)s1 [Example I-36]
> 8.00 | 5.00 to 5.82 | Cc1cc(-c2ncnc3[nH]ccc23)ccc1CNC(=O)c1ccc(C(C)(C)C)cc1 [Example I-2, 4-(tert-butyl)-N-(2-methyl-4-(7H-pyrrolo[2,3-d]pyrimidin-4-yl)benzyl)benzamide]
> 8.00 | 5.00 to 5.82 | O=C(N[C@H]1CCCc2cc(-c3ncnc4[nH]ccc34)ccc21)c1cc2c(s1)CCCC2 [Example I-89, (S)—N-(6-(7H-Pyrrolo[2,3-d]pyrimidin-4-yl)-1,2,3,4-tetrahydronaphthalen-1-yl)-4,5,6,7-tetrahydrobenzo[b]thiophene-2-carboxamide]
7.00 to 8.00 | 5.00 to 5.82 | O=C(NCc1ccc(-c2ncnc3[nH]ccc23)cc1C(F)(F)F)c1nc2c(s1)CCCC2 [Example I-122, N-(4-(7H-pyrrolo[2,3-d]pyrimidin-4-yl)-2-(trifluoromethyl)benzyl)-4,5,6,7-tetrahydrobenzo[d]thiazole-2-carboxamide]
> 8.00 | 5.00 to 5.82 | Cc1cc(-c2ncnc3[nH]ccc23)ccc1C(C)NC(=O)c1cc2c(s1)CCCC2 (stereo not drawn) [Example I-78, N-(1-(2-methyl-4-(7H-pyrrolo[2,3-d]pyrimidin-4-yl)phenyl)ethyl)-4,5,6,7-tetrahydrobenzo[b]thiophene-2-carboxamide]
> 8.00 | 5.82 to 6.30 | Cc1cc(-c2ncnc3cc[nH]c23)ccc1CNC(=O)c1cnc(C(C)(C)C)s1 [Example I-115, 2-(tert-butyl)-N-(2-methyl-4-(5H-pyrrolo[3,2-d]pyrimidin-4-yl)benzyl)thiazole-5-carboxamide]
> 8.00 | > 6.30 | Cc1cc(-c2ncnc3cc(C4=CCN(C(=O)N(C)C)CC4)[nH]c23)ccc1CNC(=O)c1ncc(C(C)(C)C)s1 [Example I-18, 5-(tert-butyl)-N-(4-(6-(1-(dimethylcarbamoyl)-1,2,3,6-tetrahydropyridin-4-yl)-5H-pyrrolo[3,2-d]pyrimidin-4-yl)-2-methylbenzyl)thiazole-2-carboxamide]
7.00 to 8.00 | 5.00 to 5.82 | O=C(NC1CCCc2cc(-c3ncnc4[nH]ccc34)ccc21)c1cc2c(s1)CCCC2 (stereo not drawn) [Example I-16, N-(6-(7H-pyrrolo[2,3-d]pyrimidin-4-yl)-1,2,3,4-tetrahydronaphthalen-1-yl)-4,5,6,7-tetrahydrobenzo[b]thiophene-2-carboxamide]
> 8.00 | 5.00 to 5.82 | CC(C)(C)c1ncc(C(=O)NC(CO)c2ccc(-c3ncnc4[nH]c(C5=CCS(=O)(=O)CC5)cc34)cc2)s1 (stereo not drawn) [Example I-30, 2-(tert-butyl)-N-(1-(4-(6-(1,1-dioxido-3,6-dihydro-2H-thiopyran-4-yl)-7H-pyrrolo[2,3-d]pyrimidin-4-yl)phenyl)-2-hydroxyethyl)thiazole-5-carboxamide]
> 8.00 | > 6.30 | Cc1cc(-c2ncnc3nc(N4CCC(C(=O)O)CC4)[nH]c23)ccc1CNC(=O)c1cnc(C(C)(C)C)s1 [Example I-52, 1-(6-(4-((2-(tert-butyl)thiazole-5-carboxamido)methyl)-3-methylphenyl)-7H-purin-8-yl)piperidine-4-carboxylic acid]
> 8.00 | 5.82 to 6.30 | Cc1cc(-c2ncnc3cc(-c4cnn(C)c4)[nH]c23)ccc1CNC(=O)N1CC(OC(C)C)C1 [Example I-43, 3-isopropoxy-N-(2-methyl-4-(6-(1-methyl-1H-pyrazol-4-yl)-5H-pyrrolo[3,2-d]pyrimidin-4-yl)benzyl)azetidine-1-carboxamide]
> 8.00 | 5.00 to 5.82 | CC(C)(C)c1csc(C(=O)NC2CCCc3cc(-c4ncnc5[nH]ncc45)ccc32)n1 (stereo in doubt) [Example I-100, (R)—N-(6-(1H-pyrazolo[3,4-d]pyrimidin-4-yl)-1,2,3,4-tetrahydronaphthalen-1-yl)-4-(tert-butyl)thiazole-2-carboxamide]
> 8.00 | > 6.30 | Cc1cc(-c2ncnc3nc(N4CCOCC4)[nH]c23)ccc1CNC(=O)c1cnc(C(C)(C)C)s1 [Example I-48, 2-(tert-butyl)-N-(2-methyl-4-(8-morpholino-7H-purin-6-yl)benzyl)thiazole-5-carboxamide]
> 8.00 | 5.82 to 6.30 | Cc1cc(-c2ncnc3cc(C4CCN(C)CC4)[nH]c23)ccc1CNC(=O)c1cnc(C(C)(C)C)s1 [Example I-25, 2-(tert-butyl)-N-(2-methyl-4-(6-(1-methylpiperidin-4-yl)-5H-pyrrolo[3,2-d]pyrimidin-4-yl)benzyl)thiazole-5-carboxamide]
> 8.00 | 5.82 to 6.30 | Cc1cc(-c2ncnc3cc(-c4cn[nH]c4)[nH]c23)ccc1CNC(=O)c1ncc(C(C)(C)C)s1 [Example I-41, N-(4-(6-(1H-pyrazol-4-yl)-5H-pyrrolo[3,2-d]pyrimidin-4-yl)-2-methylbenzyl)-5-(tert-butyl)thiazole-2-carboxamide]
